In patent publication US8309577B2, “Quinuclidine compounds as α-7 nicotinic acetylcholine receptor ligands” (Bristol-Myers Squibb Company, priority 2008, dated 2012) one finds EC50 data, which are given here for 36 molecules.

Bounds are passed on as bounds.

For one assay, the target named is T1, α-7 nicotinic acetylcholine receptor channel expressed in HEK 293 cells (Rattus norvegicus, UniProt Q05941).
T1 construct: expressed in transfected cells
T1 sequence (Q05941 23-502): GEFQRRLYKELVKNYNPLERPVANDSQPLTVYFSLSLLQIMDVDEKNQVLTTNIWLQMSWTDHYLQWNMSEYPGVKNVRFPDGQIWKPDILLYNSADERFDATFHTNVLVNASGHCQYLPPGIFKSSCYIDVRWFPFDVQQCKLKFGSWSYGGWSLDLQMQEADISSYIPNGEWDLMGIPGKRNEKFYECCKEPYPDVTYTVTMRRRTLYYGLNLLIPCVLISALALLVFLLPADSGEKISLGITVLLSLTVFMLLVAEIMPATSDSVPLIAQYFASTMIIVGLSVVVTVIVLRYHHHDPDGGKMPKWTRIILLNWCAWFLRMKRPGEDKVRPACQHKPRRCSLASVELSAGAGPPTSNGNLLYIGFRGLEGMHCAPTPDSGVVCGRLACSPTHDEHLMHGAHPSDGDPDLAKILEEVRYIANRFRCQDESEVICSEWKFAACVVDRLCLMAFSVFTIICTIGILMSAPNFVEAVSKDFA
The experiment in a line: Ca2+-sensitive fluorescence-based FLIPR assay, α7 nicotinic ACh receptor channel function (agonist). To be noted: FLIPR α7 (EC50, nM), Table Ib; HEK 293 cells, agonist Ca2+ flux. It counts as cell-based. The method, boiled down: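 Potency and efficacy derived from kinetic FLIPR Ca²⁺-flux fluorescence, recorded 3 min after compound addition in Hanks buffer following a 10 s baseline.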
Regarding `Clc1cncc(-c2ccnc(NC3=NC[C@@]4(CN5CCC4CC5)O3)c2)c1` [Example 297, (R)—N-(5-Chloro-3,4′-bipyridin-2′-yl)-4H-1′-azaspiro[oxazole-5,3′-bicyclo[2.2.2]octan]-2-amine], the EC50 was found to be 35 nM. Still for that read-out and setting: for `COc1ccc(-c2ccnc(NC3=NC[C@@]4(CN5CCC4CC5)O3)c2)cn1` [Example 298, (R)—N-(6-Methoxy-3,4′-bipyridin-2′-yl)-4H-1′-azaspiro[oxazole-5,3′-bicyclo[2.2.2]octan]-2-amine] the value was 25 nM.

In turn, `c1ccc(-c2ccnc(NC3=NC[C@@]4(CN5CCC4CC5)O3)c2)cc1` [Example 302, (R)—N-(4-Phenylpyridin-2-yl)-4H-1′-azaspiro[oxazole-5,3′-bicyclo[2.2.2]octan]-2-amine] registered an EC50 of 9 nM. This EC50 lies about 2.8-fold lower than the previous one.

On to `Cc1nc(NC2=NC[C@@]3(CN4CCC3CC4)O2)c(Cl)cc1Cl` [Example 308, (R)—N-(3,5-Dichloro-6-methylpyridin-2-yl)-4H-1′-azaspiro[oxazole-5,3′-bicyclo[2.2.2]octan]-2-amine], for which the EC50 stood at 59 nM.

The assay is the same for the next values; noted with them: FLIPR α7 activity rating (EC50, nM), Table 1; HEK 293 cells, agonist Ca2+ flux.
The molecule `Clc1ccc2cnc(NC3=NC[C@@]4(CN5CCC4CC5)O3)cc2c1Cl` [Example 281, (R)—N-(5,6-Dichloroisoquinolin-3-yl)-4H-1′-azaspiro[oxazole-5,3′-bicyclo[2.2.2]octan]-2-amine] showed an EC50 of less than 100 nM. Still for that read-out and setting: for `Clc1ccnc(NC2=NC[C@@]3(CN4CCC3CC4)O2)c1Cl` [Example 282, (R)—N-(3,4-Dichloropyridin-2-yl)-4H-1′-azaspiro[oxazole-5,3′-bicyclo[2.2.2]octan]-2-amine] the value was 100 to 1000 nM. On the same count and under the same terms, for `Clc1cccnc1NC1=NC[C@@]2(CN3CCC2CC3)O1` [Example 283, (R)—N-(3-Chloropyridin-2-yl)-4H-1′-azaspiro[oxazole-5,3′-bicyclo[2.2.2]octan]-2-amine] the value was 100 to 1000 nM; for `Fc1cc(Cl)cnc1NC1=NC[C@@]2(CN3CCC2CC3)O1` [Example 284, (R)—N-(5-Chloro-3-fluoropyridin-2-yl)-4H-1′-azaspiro[oxazole-5,3′-bicyclo[2.2.2]octan]-2-amine], less than 100 nM. Same read-out and setting: for `Clc1cccc(NC2=NC[C@@]3(CN4CCC3CC4)O2)n1` [Example 285, (R)—N-(6-Chloropyridin-2-yl)-4H-1′-azaspiro[oxazole-5,3′-bicyclo[2.2.2]octan]-2-amine] the value was 100 to 1000 nM; for `Clc1cc(Cl)nc(NC2=NC[C@@]3(CN4CCC3CC4)O2)c1` [Example 286, (R)—N-(4,6-Dichloropyridin-2-yl)-4H-1′-azaspiro[oxazole-5,3′-bicyclo[2.2.2]octan]-2-amine], 100 to 1000 nM.

`COc1ncccc1-c1ccnc(NC2=NC[C@@]3(CN4CCC3CC4)O2)c1` [Example 287, (R)—N-(2-methoxy-3,4′-bipyridin-2′-yl)-4H-1′-azaspiro[oxazole-5,3′-bicyclo[2.2.2]octan]-2-amine] had an EC50 of 100 to 1000 nM. As for `c1ccc2oc(NC3=NC[C@@]4(CN5CCC4CC5)O3)nc2c1` [Example 288, (R)—N-(Benzo[d]oxazol-2-yl)-4H-1′-azaspiro[oxazole-5,3′-bicyclo[2.2.2]octan]-2-amine], the EC50 was less than 100 nM.

`Clc1ccc2oc(NC3=NC[C@@]4(CN5CCC4CC5)O3)nc2c1` [Example 289, (R)—N-(5-Chlorobenzo[d]oxazol-2-yl)-4H-1′-azaspiro[oxazole-5,3′-bicyclo[2.2.2]octan]-2-amine] returned a 50% effective concentration (EC50) of less than 100 nM. Still for that read-out and setting: for `c1cnc2nc(NC3=NC[C@@]4(CN5CCC4CC5)O3)oc2c1` [Example 290, (R)—N-(Oxazolo[4,5-b]pyridin-2-yl)-4H-1′-azaspiro[oxazole-5,3′-bicyclo[2.2.2]octan]-2-amine] the value was less than 100 nM; for `Cc1ccc2cnc(NC3=NC[C@@]4(CN5CCC4CC5)O3)cc2c1` [Example 291, (R)—N-(6-Methylisoquinolin-3-yl)-4H-1′-azaspiro[oxazole-5,3′-bicyclo[2.2.2]octan]-2-amine], less than 100 nM; for `Brc1ccc2cnc(NC3=NC[C@@]4(CN5CCC4CC5)O3)cc2c1` [Example 292, (R)—N-(6-Bromoisoquinolin-3-yl)-4H-1′-azaspiro[oxazole-5,3′-bicyclo[2.2.2]octan]-2-amine], less than 100 nM.

The molecule `Brc1ccc2cc(NC3=NC[C@@]4(CN5CCC4CC5)O3)ncc2c1` [Example 293, (R)—N-(7-Bromoisoquinolin-3-yl)-4H-1′-azaspiro[oxazole-5,3′-bicyclo[2.2.2]octan]-2-amine] came in with an EC50 of 100 to 1000 nM. The same measure, in the same setting: for `Brc1cccc2cnc(NC3=NC[C@@]4(CN5CCC4CC5)O3)cc12` [Example 294, (R)—N-(5-bromoisoquinolin-3-yl)-4H-1′-azaspiro[oxazole-5,3′-bicyclo[2.2.2]octan]-2-amine] the value was less than 100 nM.

For the molecule `Cc1cc(C)c2cnc(NC3=NC[C@@]4(CN5CCC4CC5)O3)cc2c1` [Example 295, (2R)—N-(6,8-Dimethyl-3-isoquinolinyl)-4′H-spiro[4-azabicyclo[2.2.2]octane-2,5′-[1,3]oxazol]-2′-amine], the EC50 was in the range of 100 to 1000 nM.

Still in this assay, the particulars now being: FLIPR α7 activity rating (EC50, nM), Table Ib; HEK 293 cells, agonist Ca2+ flux.
As to `c1cncc(-c2ccnc(NC3=NC[C@@]4(CN5CCC4CC5)O3)c2)c1` [Example 296, (R)—N-(3,4′-Bipyridin-2′-yl)-4H-1′-azaspiro[oxazole-5,3′-bicyclo[2.2.2]octan]-2-amine], the EC50 was less than 100 nM. On the same count and under the same terms, for `Clc1cncc(-c2ccnc(NC3=NC[C@@]4(CN5CCC4CC5)O3)c2)c1` [Example 297, (R)—N-(5-Chloro-3,4′-bipyridin-2′-yl)-4H-1′-azaspiro[oxazole-5,3′-bicyclo[2.2.2]octan]-2-amine] the value was less than 100 nM. As for `COc1ccc(-c2ccnc(NC3=NC[C@@]4(CN5CCC4CC5)O3)c2)cn1` [Example 298, (R)—N-(6-Methoxy-3,4′-bipyridin-2′-yl)-4H-1′-azaspiro[oxazole-5,3′-bicyclo[2.2.2]octan]-2-amine], the EC50 is less than 100 nM. As to `Fc1ccc(-c2ccnc(NC3=NC[C@@]4(CN5CCC4CC5)O3)c2)cn1` [Example 299, (R)—N-(6-Fluoro-3,4′-bipyridin-2′-yl)-4H-1′-azaspiro[oxazole-5,3′-bicyclo[2.2.2]octan]-2-amine], the EC50 was less than 100 nM.

The molecule `Fc1ccc(-c2ccnc(NC3=NC[C@@]4(CN5CCC4CC5)O3)c2)cc1Cl` [Example 300, (R)—N-(4-(3-Chloro-4-fluoro-phenyl)pyridin-2-yl)-4H-1′-azaspiro[oxazole-5,3′-bicyclo[2.2.2]octan]-2-amine] came in with an EC50 of less than 100 nM. Turning to `Cc1cccc(-c2ccnc(NC3=NC[C@@]4(CN5CCC4CC5)O3)c2)c1` [Example 301, (R)—N-(4-m-Tolylpyridin-2-yl)-4H-1′-azaspiro[oxazole-5,3′-bicyclo[2.2.2]octan]-2-amine], the EC50 is less than 100 nM. `c1ccc(-c2ccnc(NC3=NC[C@@]4(CN5CCC4CC5)O3)c2)cc1` [Example 302, (R)—N-(4-Phenylpyridin-2-yl)-4H-1′-azaspiro[oxazole-5,3′-bicyclo[2.2.2]octan]-2-amine] gave an EC50 of less than 100 nM.

In the case of `Cn1cc(-c2ccnc(NC3=NC[C@@]4(CN5CCC4CC5)O3)c2)cn1` [Example 303, (R)—N-(4-(1-Methyl-1H-pyrazol-4-yl)pyridin-2-yl)-4H-1′-azaspiro[oxazole-5,3′-bicyclo[2.2.2]octan]-2-amine], the concentration giving a half-maximal response (EC50) is less than 100 nM. Same read-out and setting: for `c1cc(-c2cscn2)cc(NC2=NC[C@@]3(CN4CCC3CC4)O2)n1` [Example 304, (R)—N-(4-(Thiazol-4-yl)pyridin-2-yl)-4H-1′-azaspiro[oxazole-5,3′-bicyclo[2.2.2]octan]-2-amine] the value was less than 100 nM.

Molecule `O=[N+]([O-])c1ccc(-c2ccnc(NC3=NC[C@@]4(CN5CCC4CC5)O3)c2)cn1` [Example 305, (R)—N-(6-Nitro-3,4′-bipyridin-2′-yl)-4H-1′-azaspiro[oxazole-5,3′-bicyclo[2.2.2]octan]-2-amine] showed an EC50 of less than 100 nM. `Cc1nc(NC2=NC[C@@]3(CN4CCC3CC4)O2)ccc1Cl` [Example 306, (R)—N-(5-Chloro-6-methylpyridin-2-yl)-4H-1′-azaspiro[oxazole-5,3′-bicyclo[2.2.2]octan]-2-amine] showed an EC50 of less than 100 nM. `Cc1cc(NC2=NC[C@@]3(CN4CCC3CC4)O2)ncc1F` [Example 307, (R)—N-(5-Fluoro-4-methylpyridin-2-yl)-4H-1′-azaspiro[oxazole-5,3′-bicyclo[2.2.2]octan]-2-amine]: the EC50 is less than 100 nM. On the same count and under the same terms, for `Cc1nc(NC2=NC[C@@]3(CN4CCC3CC4)O2)c(Cl)cc1Cl` [Example 308, (R)—N-(3,5-Dichloro-6-methylpyridin-2-yl)-4H-1′-azaspiro[oxazole-5,3′-bicyclo[2.2.2]octan]-2-amine] the value was less than 100 nM; for `Cc1cnc(NC2=NC[C@@]3(CN4CCC3CC4)O2)cc1C` [Example 309, (R)—N-(4,5-Dimethylpyridin-2-yl)-4H-1′-azaspiro[oxazole-5,3′-bicyclo[2.2.2]octan]-2-amine], less than 100 nM; for `COc1ccc(NC2=NC[C@@]3(CN4CCC3CC4)O2)nc1` [Example 310, (R)—N-(5-Methoxypyridin-2-yl)-4H-1′-azaspiro[oxazole-5,3′-bicyclo[2.2.2]octan]-2-amine], less than 100 nM. On the same count and under the same terms, for `Clc1c(NC2=NC[C@@]3(CN4CCC3CC4)O2)ncc2ccccc12` [Example 311, (R)—N-(4-Chloroisoquinolin-3-yl)-4H-1′-azaspiro[oxazole-5,3′-bicyclo[2.2.2]octan]-2-amine] the value was less than 100 nM. The same measure, in the same setting: for `Fc1c(Cl)ccc2cc(NC3=NC[C@@]4(CN5CCC4CC5)O3)ncc12` [Example 312, (R)—N-(7-Chloro-8-fluoroisoquinolin-3-yl)-4H-1′-azaspiro[oxazole-5,3′-bicyclo[2.2.2]octan]-2-amine] the value was less than 100 nM; for `Cc1nc(NC2=NC[C@@]3(CN4CCC3CC4)O2)cc2ccccc12` [Example 313, (R)—N-(1-Methylisoquinolin-3-yl)-4H-1′-azaspiro[oxazole-5,3′-bicyclo[2.2.2]octan]-2-amine], less than 100 nM; for `Fc1ccc(-c2cc(NC3=NC[C@@]4(CN5CCC4CC5)O3)ncn2)cc1` [Example 314, (R)—N-(6-(4-Fluorophenyl)pyrimidin-4-yl)-4H-1′-azaspiro[oxazole-5,3′-bicyclo[2.2.2]octan]-2-amine], less than 100 nM.

With `Fc1cccc(-c2cc(NC3=NC[C@@]4(CN5CCC4CC5)O3)ncn2)c1` [Example 315, (R)—N-(6-(3-Fluorophenyl)pyrimidin-4-yl)-4H-1′-azaspiro[oxazole-5,3′-bicyclo[2.2.2]octan]-2-amine], the 50% effective concentration (EC50) was less than 100 nM.

`Fc1cnc(NC2=NC[C@@]3(CN4CCC3CC4)O2)nc1` [Example 316, (R)—N-(5-Fluoropyrimidin-2-yl)-4H-1′-azaspiro[oxazole-5,3′-bicyclo[2.2.2]octan]-2-amine] gave an EC50 of less than 100 nM.
